Earlier results, collected in paper PMC7904743, “WIDOCK: a reactive docking protocol for virtual screening of covalent inhibitors” (Journal of Computer-Aided Molecular Design, 2021).
Like-named read-outs stand apart in the source and are kept apart here.

Key:
NUDT7 = details: protein labeling at 200 μM; experimental actives if % labeling higher than 50%; cited from earlier work
[1] = thiol reactivity, cited from earlier work
OTUB2 = details: experimental actives if % labeling higher than 50%, cited from earlier work
[2] = natural log of average kinetic rate constant
[3] = natural log of average rate constant
[4] = natural log of average rate constant k
[5] = natural logarithm of average rate constant

| SMILES | NUDT7 % labeling (NUDT7) [%] | ln(avg k) [1, 2] | ln(avg k) [1, 3] | OTUB2 % labeling (OTUB2; OTUB2 protein labeling) [%] | ln(avg k) [1, 4] | ln(avg k) [1, 5] | OTUB2 % labeling (OTUB2) [%] |
| --- | --- | --- | --- | --- | --- | --- | --- |
| O=C(CCl)NNC(=O)c1ccccc1Cl [PCM-0102954, O=C(CCl)NNC(=O)c1ccccc1Cl] | 0 | -17.060 | -17.060 | 80 |  |  |  |
| O=C(CCl)N1CCOCC1 [PCM-0102749, O=C(CCl)N1CCOCC1] | 0 | -17.466 | -17.466 | 0 |  |  |  |
| O=C(CCl)NC1CCN(C2CC2)CC1 [PCM-0103055, O=C(CCl)NC1CCN(C2CC2)CC1] | 0 | -16.125 | -16.125 | 0 |  |  |  |
| Cc1ccc(S(N)(=O)=O)cc1NC(=O)CCl [PCM-0102744, Cc1ccc(S(N)(=O)=O)cc1NC(=O)CCl] | 0 | -16.170 | -16.170 | 10 |  |  |  |
| O=C(CCl)NNC(=O)c1ccc([N+](=O)[O-])cc1 [PCM-0102885, O=C(CCl)NNC(=O)c1ccc([N+](=O)[O-])cc1] | 0 | -16.970 | -16.970 | 21 |  |  |  |
| O=C(CCl)N1CCN(S(=O)(=O)c2ccc(F)c(Cl)c2)CC1 [PCM-0102343, O=C(CCl)N1CCN(S(=O)(=O)c2ccc(F)c(Cl)c2)CC1] | 12 |  |  |  | -15.080 | -15.080 | 0 |
| Cc1cc(NC(=O)CCl)no1 [PCM-0102500, Cc1cc(NC(=O)CCl)no1] | 0 |  |  |  | -15.955 | -15.955 | 35 |
| O=C(CCl)N1CCC(c2ccccc2)=N1 [PCM-0102150, O=C(CCl)N1CCC(c2ccccc2)=N1] | 0 |  |  |  | -14.898 | -14.898 | 0 |
| O=C(CCl)NC1C2CC3CC(C2)CC1C3 (stereo not shown) [PCM-0102404, O=C(CCl)NC1C2CC3CC(C2)CC1C3] | 0 |  |  |  | -16.228 | -16.228 | 33 |
| O=C(CCl)Nc1ccc(Cl)cc1 [PCM-0102120, O=C(CCl)Nc1ccc(Cl)cc1] | 18 |  |  |  | -15.805 | -15.805 | 23 |
| CC(C)(C)c1cc(NC(=O)CCl)on1 [PCM-0102348, CC(C)(C)c1cc(NC(=O)CCl)on1] | 0 |  |  |  | -15.607 | -15.607 | 0 |
| O=C(CCl)Nc1cccc(Cl)c1Cl [PCM-0102797, O=C(CCl)Nc1cccc(Cl)c1Cl] | 15 | -15.881 | -15.881 | 0 |  |  |  |
| O=C(CCl)N1CCN(c2ncc(Cl)cc2Cl)CC1 [PCM-0103022, O=C(CCl)N1CCN(c2ncc(Cl)cc2Cl)CC1] | 22 | -15.906 | -15.906 | 0 |  |  |  |
| O=C1CC(C(F)(F)F)N(C(=O)CCl)c2ccccc2N1 (stereo not shown) [PCM-0102363, O=C1CC(C(F)(F)F)N(C(=O)CCl)c2ccccc2N1] | 28 |  |  |  | -15.654 | -15.654 | 0 |
| O=C(CCl)Nc1ccccc1N1CCCC1=O [PCM-0102375, O=C(CCl)Nc1ccccc1N1CCCC1=O] | 0 |  |  |  | -16.453 | -16.453 | 13 |
| O=C(CCl)Nc1cc(Cl)ccc1C(=O)O [PCM-0102412, O=C(CCl)Nc1cc(Cl)ccc1C(=O)O] | 16 |  |  |  | -17.207 | -17.207 | 7 |
| O=C(CCl)NNC(=O)CC1CCS(=O)(=O)C1 (stereo not shown) [PCM-0102998, O=C(CCl)NNC(=O)CC1CCS(=O)(=O)C1] | 0 | -16.898 | -16.898 | 69 |  |  |  |
| CC1CCC(C#N)(N(C)C(=O)CCl)CC1 (stereo not shown) [PCM-0102251, CC1CCC(C#N)(N(C)C(=O)CCl)CC1] | 5 |  |  |  | -15.448 | -15.448 | 0 |
| NC(=O)c1ccsc1NC(=O)CCl [PCM-0102314, NC(=O)c1ccsc1NC(=O)CCl] | 18 |  |  |  | -15.717 | -15.717 | 0 |
| CC(NC(=O)CCl)c1ccccc1Br (stereo not shown) [PCM-0102256, CC(NC(=O)CCl)c1ccccc1Br] | 19 |  |  |  | -16.021 | -16.021 | 29 |
| O=C(CCl)NC(=O)NCc1cccs1 [PCM-0102753, O=C(CCl)NC(=O)NCc1cccs1] | 0 | -15.984 | -15.984 | 23 |  |  |  |
| CN(CC1CC1)C(=O)CCl [PCM-0102714, CN(CC1CC1)C(=O)CCl] | 0 |  | -16.302 |  |  | -16.302 | 0 |

| SMILES | NUDT7 % labeling (NUDT7) [%] | ln(avg k) [1, 2] | ln(avg k) [1, 3] | OTUB2 % labeling (OTUB2; OTUB2 protein labeling) [%] | ln(avg k) [1, 4] | ln(avg k) [1, 5] | OTUB2 % labeling (OTUB2) [%] |
| --- | --- | --- | --- | --- | --- | --- | --- |
| O=C(CCl)N1CCN(c2ccccc2[N+](=O)[O-])CC1 [PCM-0103016, O=C(CCl)N1CCN(c2ccccc2[N+](=O)[O-])CC1] | 27 | -15.523 | -15.523 | 9 |  |  |  |
| O=C(CCl)N(c1ccccc1)C1CCS(=O)(=O)C1 (stereo not shown) [PCM-0102755, O=C(CCl)N(c1ccccc1)C1CCS(=O)(=O)C1] | 17 | -15.253 | -15.253 | 0 |  |  |  |
| O=C(CCl)N(C1=CCCCC1)C1CC1 [PCM-0102745, O=C(CCl)N(C1=CCCCC1)C1CC1] | 0 | -16.466 | -16.466 | 0 |  |  |  |
| Cc1cc(C)c(NC(=O)CCl)c(C)c1 [PCM-0102352, Cc1cc(C)c(NC(=O)CCl)c(C)c1] | 0 |  |  |  | -17.111 | -17.111 | 0 |
| O=C(CCl)NC1CCOCC1 [PCM-0103045, O=C(CCl)NC1CCOCC1] | 0 | -16.016 | -16.016 | 0 |  |  |  |
| CCN(C(=O)CCl)C1CC1 [PCM-0102594, CCN(C(=O)CCl)C1CC1] | 0 |  |  |  | -17.070 | -17.070 | 0 |
| O=C(CCl)NC(=O)NC12CC3CC(CC(C3)C1)C2 [PCM-0102360, O=C(CCl)NC(=O)NC12CC3CC(CC(C3)C1)C2] | 0 |  |  |  | -16.068 | -16.068 | 12 |
| CC(C)c1cccc(NC(=O)CCl)c1 [PCM-0102429, CC(C)c1cccc(NC(=O)CCl)c1] | 10 |  |  |  | -15.994 | -15.994 | 23 |
| O=C(CCl)N1CCN(Cc2ccco2)CC1 [PCM-0103006, O=C(CCl)N1CCN(Cc2ccco2)CC1] | 0 | -15.615 | -15.615 | 0 |  |  |  |
| O=C(CCl)N1CCN(C(=O)C2COc3ccccc3O2)CC1 (stereo not shown) [PCM-0102996, O=C(CCl)N1CCN(C(=O)C2COc3ccccc3O2)CC1] | 0 | -15.549 | -15.549 | 13 |  |  |  |
| CC(=O)NNC(=O)CCl [PCM-0102310, CC(=O)NNC(=O)CCl] | 0 |  |  |  | -16.812 | -16.812 | 18 |
| O=C(CCl)N1CCC(C(=O)N2CCCCCC2)CC1 [PCM-0102781, O=C(CCl)N1CCC(C(=O)N2CCCCCC2)CC1] | 0 | -15.500 | -15.500 | 0 |  |  |  |
| Cc1cccc(CNC(=O)CCl)c1 [PCM-0102821, Cc1cccc(CNC(=O)CCl)c1] | 0 | -16.579 | -16.579 | 86 |  |  |  |
| CN(Cc1ccccc1)C(=O)CCl [PCM-0102984, CN(Cc1ccccc1)C(=O)CCl] | 11 | -16.386 | -16.386 | 0 |  |  |  |
| CC1CCCCC1NC(=O)NC(=O)CCl (stereo not shown) [PCM-0102292, CC1CCCCC1NC(=O)NC(=O)CCl] | 0 |  |  |  | -15.785 | -15.785 | 24 |
| CN(CCC#N)C(=O)CCl [PCM-0102712, CN(CCC#N)C(=O)CCl] | 0 |  | -15.839 |  |  | -15.839 | 0 |
| CCN(C(=O)CCl)c1ccc(F)cc1 [PCM-0102900, CCN(C(=O)CCl)c1ccc(F)cc1] | 29 | -15.837 | -15.837 | 0 |  |  |  |
| O=C(CCl)Nc1cc(Cl)ccc1F [PCM-0102762, O=C(CCl)Nc1cc(Cl)ccc1F] | 0 | -15.818 | -15.818 | 13 |  |  |  |
| CC(NC(=O)CCl)C1CC1 (stereo not shown) [PCM-0102157, CC(NC(=O)CCl)C1CC1] | 0 |  |  |  | -17.112 | -17.112 | 10 |
| CS(=O)(=O)N1CCN(C(=O)CCl)CC1 [PCM-0102417, CS(=O)(=O)N1CCN(C(=O)CCl)CC1] | 0 |  |  |  | -15.539 | -15.539 | 0 |
| NS(=O)(=O)c1ccc(Cl)c(NC(=O)CCl)c1 [PCM-0103012, NS(=O)(=O)c1ccc(Cl)c(NC(=O)CCl)c1] | 0 | -15.947 | -15.947 | 10 |  |  |  |
